Assay results from publication PMC10123570 (The Protein Journal, 2023).
Structures can show the parent of a compound that is named as a salt.

What follows are compounds tested against T1, High Temperature requirement A (LmHtrA) (Listeria monocytogenes, UniProt Q8YA67) (assay: azo-casein cleavage, spectrophotometric).
T1 sequence (Q8YA67 1-500): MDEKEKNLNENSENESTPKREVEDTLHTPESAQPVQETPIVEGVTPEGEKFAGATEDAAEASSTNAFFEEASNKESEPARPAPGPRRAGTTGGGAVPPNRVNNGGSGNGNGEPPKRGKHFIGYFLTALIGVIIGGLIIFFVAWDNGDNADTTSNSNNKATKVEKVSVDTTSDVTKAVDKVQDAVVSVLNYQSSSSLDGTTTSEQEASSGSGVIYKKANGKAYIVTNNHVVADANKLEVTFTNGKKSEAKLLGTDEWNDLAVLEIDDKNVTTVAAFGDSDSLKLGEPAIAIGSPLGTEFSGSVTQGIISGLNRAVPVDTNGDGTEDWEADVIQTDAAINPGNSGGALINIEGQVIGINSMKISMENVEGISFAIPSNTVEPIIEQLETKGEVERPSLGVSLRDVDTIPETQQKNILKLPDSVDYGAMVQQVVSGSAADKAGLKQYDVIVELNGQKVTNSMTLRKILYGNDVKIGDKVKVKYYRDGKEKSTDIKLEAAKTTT
Assay type: biochemical

SMILES	IC50 [µM]
CN(C)C(=O)COC(=O)Cc1ccc(OC(=O)c2ccc(NC(=N)N)cc2)cc1 [CM, Camostat mesylate]	152 ± 7.5
CCOC(=O)c1ccc(OC(=O)CCCCCNC(=N)N)cc1 [GM, Gabexate mesylate]	80.6 ± 8.5
N=C(N)c1ccc2cc(OC(=O)c3ccc(N=C(N)N)cc3)ccc2c1 [NM, Nafamostat mesylate]	6.6 ± 0.4
